Test results reported in patent US20240049723A1, “PLANT GROWTH REGULATOR OR METHOD FOR PROMOTING PLANT GROWTH” (Kureha Corporation, priority 2021, published 2024).

Experiments:
Assay type in all cases: in vivo
rapeseed = test: Evaluation Example 3: plant height of rapeseed, petri dish; details: EGT concentration 1 mM; 7th day after seeding
Description: (§1) In a 9 cm petri dish on which filter paper was spread, 10 mL of the plant growth regulator was added. Ten seeds of wheat or rapeseed were sown per one petri dish. In a thermostatic chamber set at room temperature of 25° C., the light period was 16 hours and the dark period was 8 hours. The light conditions were set using a fluorescent lamp (PLANT FLEC, 40 W LED fluorescent lamp for plant growth, electric bulb color, available from Nippon Medical and Chemical Instruments Co., Ltd.) such that the light intensity was 5000 lx in the central part under irradiation with the fluorescent lamp.
(§2) As the plant growth regulator, the hot water extraction product prepared in Production Example 1 was used. Furthermore, for comparison, a plant growth regulator formed from 1 mM of ergothioneine aqueous solution was used.
(§3) The plant height of the wheat or rapeseed on the 7th day after seeding was evaluated.

[1] = system: Arabidopsis thaliana (Col-0); test: Evaluation Example 6: Arabidopsis thaliana treated with Pseudozyma siamensis extracts from various extraction methods; details: EGT concentration 0.1 mM
Description: (§4) One individual Arabidopsis thaliana (Col-0) was sown in a plastic pot having a diameter of 60 mm and a height of 55 mm. Plastic deep dishes each having a diameter of 160 mm and a height of 28 mm were prepared, and six pots were respectively placed therein. As soil, 45 mL of vermiculite, 22.5 mL of granular soil (Kumiai horticultural soil), and 22.5 mL of vermiculite were placed in the pot in this order.
(§5) In a growth chamber set at room temperature of 22° C., the light period was 16 hours and the dark period was 8 hours. The light conditions were set such that the light intensity was 5000 lx in the central part under irradiation with the fluorescent lamp. Water supply was conducted from the bottom, and the water level was set at about 5 mm. Chemical treatment was started […]. More specifically, on the 8th, 10th, 12th, and 14th days after seeding, 50 mL of the plant growth regulator was added instead of water supply.
(§6) As the plant growth regulator, various extracts of Pseudozyma siamensis obtained in Production Example 2 were used. Furthermore, for comparison, a plant growth regulator formed from 0.1 mM of ergothioneine aqueous solution was used.
On the 95th day after seeding, seeds were harvested, and the seed yield was evaluated.

[2] = system: Arabidopsis thaliana (Col-0); test: Evaluation Example 2: seed yield of Arabidopsis thaliana, C-EGT-DCH; details: EGT concentration 0.1 mM; harvested 87th day after seeding
Description: as §4, §5
As the plant growth regulator, the hot water extraction product of Dirkmeia churashimaensis (C-EGT-DCH) prepared in Production Example 1 was used. Furthermore, for comparison, a plant growth regulator formed from 0.1 mM of ergothioneine aqueous solution was used.
On the 87th day after seeding, seeds were harvested, and the seed yield was evaluated.

radish (Akamaru Hatsuka) = test: Evaluation Example 5: underground part weight of radish; details: EGT concentration 0.1 mM; 28th day after seeding
Description: In a plastic pot having a diameter of 100 mm and a height of 135 mm, 600 mL of granular soil (Kumiai horticultural soil) was placed, and one individual radish (Akamaru Hatsuka) was sown in a pot.
The radish was managed in a greenhouse set at room temperature of 25° C. Chemical treatment was started 2 weeks after seeding. More specifically, on the 10th, 12th, 14th, and 16th days after seeding, 50 mL of the plant growth regulator was added.
(§7) As the plant growth regulator, the hot water extraction product of Pseudozyma siamensis (C-EGT-PSI) prepared in Production Example 1 was used. Furthermore, for comparison, a plant growth regulator formed from 0.1 mM of ergothioneine aqueous solution was used.
On the 28th day after seeding, the underground part weight was evaluated.

[3] = system: Arabidopsis thaliana (Col-0); test: Evaluation Example 7: Arabidopsis thaliana treated with Pseudozyma siamensis extracts from various extraction methods; details: EGT concentration 0.1 mM; 93rd day after seeding
Description: as §4, §5, §6
On the 93rd day after seeding, the plant height, the aboveground part weight, and the seed yield were evaluated.

wheat = test: Evaluation Example 3: plant height of wheat, petri dish; details: EGT concentration 1 mM; 7th day after seeding
Description: as §1, §2, §3

tomato (Micro Tom) = test: Evaluation Example 4: number of flowers of tomato; details: EGT concentration 0.1 mM; 64th day after seeding
Description: In a plastic pot having a square of 120 mm length and a height of 100 mm, 1 L of granular soil (Kumiai horticultural soil) was placed, and one individual tomato (Micro Tom) was sown in a pot.
(§8) In a thermostatic chamber set at room temperature of 25° C., the light period was 16 hours and the dark period was 8 hours. The light conditions were set using a fluorescent lamp (PLANT FLEC, 40 W LED fluorescent lamp for plant growth, electric bulb color, available from Nippon Medical and Chemical Instruments Co., Ltd.) such that the light intensity was 5000 lx in the central part under irradiation with the fluorescent lamp. Water supply was conducted from the bottom, and the water level was set at about 5 mm. Chemical treatment was started 4 weeks after seeding. More specifically, on the 25th, 27th, 29th, 31st, 33rd, 35th, and 37th days after seeding, 50 mL of the plant growth regulator was added instead of water supply.
as §7
On the 64th day after seeding, the number of flowers was evaluated.

[4] = system: Arabidopsis thaliana (Col-0); test: Evaluation Example 1: seed yield of Arabidopsis thaliana, hot water extraction products; details: EGT concentration 1 mM, harvested 89th day after seeding
Description: as §4
as §8, with “of 22°” for “of 25°”, “started 2” for “started 4”, “the 8th, 10th, 12th,” for “the 25th, 27th, 29th, 31st, 33rd, 35th,”, “and 14th” for “and 37th”
As the plant growth regulator, the hot water extraction product prepared in Production Example 1 was used. […]
On the 89th day after seeding, seeds were harvested, and the seed yield was evaluated.

[5] = harvested 95th day after seeding

C[N+](C)(C)[C@@H](Cc1c[nH]c(=S)[nH]1)C(=O)[O-] [EGT, ergothioneine]
1.1: Rapeseed plant height ratio to untreated control (rapeseed) | Plant height ratio to untreated control ([1]; 95th day after seeding) | Aboveground part weight ratio to untreated control [3] | Plant height ratio to untreated control [3] | Wheat plant height ratio to untreated control (wheat)
1.3: Seed yield ratio to untreated control [2] | Seed yield ratio to untreated control [3] | Flower number ratio to untreated control (tomato (Micro Tom))
1.0: Rapeseed plant height ratio to EGT (rapeseed) | Plant height ratio to EGT ([1]; 95th day after seeding) | Seed yield ratio to EGT [1, 5] | Seed yield ratio to EGT [2] | Underground part weight ratio to EGT (radish (Akamaru Hatsuka)) | Aboveground part weight ratio to EGT [3] | Plant height ratio to EGT [3] | Seed yield ratio to EGT [3] | Wheat plant height ratio to EGT (wheat) | Flower number ratio to EGT (tomato (Micro Tom)) | Seed yield ratio to EGT ([4]; compared with 1 mM EGT)
1.2: Seed yield ratio to untreated control [1, 5] | Underground part weight ratio to untreated control (radish (Akamaru Hatsuka)) | Seed yield ratio to untreated control ([4]; 50 mL on 8th, 10th, 12th, 14th days)
